biological target: T1, human RXFP1 (Homo sapiens, UniProt Q9HBX9); experiment: hRXFP1 HEK293 cAMP assay (HTRF); format: cell-based; settings: HEK293 cells stably expressing human RXFP1; 30 min at rt; intracellular cAMP by HTRF
T1 construct: expressed in transfected cells
T1 sequence (Q9HBX9 1-757): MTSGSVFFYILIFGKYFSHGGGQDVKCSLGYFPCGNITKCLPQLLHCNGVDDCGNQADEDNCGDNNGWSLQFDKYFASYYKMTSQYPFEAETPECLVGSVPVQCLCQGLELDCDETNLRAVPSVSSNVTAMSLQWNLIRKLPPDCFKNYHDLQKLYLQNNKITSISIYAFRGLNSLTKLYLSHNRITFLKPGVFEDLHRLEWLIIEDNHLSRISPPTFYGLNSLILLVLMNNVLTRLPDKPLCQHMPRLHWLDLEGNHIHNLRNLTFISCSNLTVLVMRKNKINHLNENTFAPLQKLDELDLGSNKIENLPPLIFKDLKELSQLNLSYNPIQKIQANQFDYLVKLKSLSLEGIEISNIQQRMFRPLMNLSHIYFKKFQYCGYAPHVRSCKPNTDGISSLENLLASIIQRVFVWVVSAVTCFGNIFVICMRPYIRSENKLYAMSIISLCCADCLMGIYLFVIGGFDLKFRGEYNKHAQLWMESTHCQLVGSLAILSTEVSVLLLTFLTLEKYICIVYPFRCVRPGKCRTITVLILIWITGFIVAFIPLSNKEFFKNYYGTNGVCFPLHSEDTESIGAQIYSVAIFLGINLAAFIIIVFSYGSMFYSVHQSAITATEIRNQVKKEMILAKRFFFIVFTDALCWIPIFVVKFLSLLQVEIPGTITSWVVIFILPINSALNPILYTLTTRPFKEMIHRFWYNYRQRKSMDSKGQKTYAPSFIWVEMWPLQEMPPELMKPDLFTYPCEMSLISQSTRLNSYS
Outline: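 HEK293 cells stably expressing human RXFP1 treated 30 min at rt with compound (0.010 nM to 50 μM, 2% DMSO) in HBSS/HEPES buffer with 0.5 mM IBMX. Intracellular cAMP measured by HTRF (665/590 nm ratio) against a cAMP standard curve; potency fitted by 4-parameter logistic.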

Molecule	EC50
COc1ccc(C2=NOC3(C2)CN(C(=O)CO)C3)cc1C(=O)Nc1c(C(=O)Nc2ccc(F)c(C(F)(F)F)c2)sc2cc(C(F)(F)F)ccc12 [Example 285, N-(4-fluoro-3-(trifluoromethyl)phenyl)-3-(5-(2-(2-hydroxyacetyl)-5-oxa-2,6-diazaspiro[3.4]oct-6-en-7-yl)-2-methoxy-benzamido)-6-(trifluoromethyl) benzo[b] thiophene-2-carboxamide]	1860 nM
COc1ccc(C2=NOC3(CNC3)C2)cc1C(=O)Nc1c(C(=O)Nc2ccc(F)c(C(F)(F)F)c2)sc2cc(C(F)(F)F)ccc12 [Example 286, N-(4-fluoro-3-(trifluoromethyl)phenyl)-3-(2-methoxy-5-(5-oxa-2,6-diazaspiro[3.4]oct-6-en-7-yl)benzamido)-6-(trifluoromethyl) benzo[b] thiophene-2-carboxamide]	5000 nM
COc1ccc(-c2cc(C(=O)O)ccc2F)cc1C(=O)Nc1c(C(=O)Nc2ccc(F)c(C(F)(F)F)c2)sc2nc(C)ccc12 [Example 288, 6-fluoro-3′-[(2-{[4-fluoro-3-(trifluoromethyl)phenyl]carbamoyl}-6-methylthieno[2,3-b]pyridin-3-yl)carbamoyl]-4′-methoxy-[1,1′-biphenyl]-3-carboxylic acid]	4260 nM
COc1ccc(-c2cc(C(=O)O)ccc2F)cc1C(=O)Nc1c(C(=O)Nc2ccc(F)c(C(F)(F)F)c2)sc2ncccc12 [Example 289, 6-fluoro-3′-[(2-{[4-fluoro-3-(trifluoromethyl)phenyl]carbamoyl}thieno[2,3-b]pyridin-3-yl)carbamoyl]-4′-methoxy-[1,1′-biphenyl]-3-carboxylic acid]	2050 nM
(R)-6-chloro- N-(4-fluoro-3- (trifluoromethyl) phenyl)-3-(5- (2- (hydroxymethyl) morpholine- 4-carbonyl)-2- methoxy- benzamido) thieno[3, 2-c]pyridine-2- carboxamide [Example 239]	2100 nM
N-(4-fluoro-3- (trifluoromethyl) phenyl)-3-(4- methoxy-3′- (morpholino- sulfonyl)-[1,1′- biphenyl]-3- carboxamido)- 6- (trifluoromethyl) benzo[b] thiophene-2- carboxamide [Example 122]	41.8 nM

Continued, values first:

EC50	Molecule
408 nM	COc1ccc(C2=NOC3(CCN(C(=O)CO)C3)C2)cc1C(=O)Nc1c(C(=O)Nc2ccc(F)c(C(F)(F)F)c2)sc2cc(C(F)(F)F)ccc12 (stereo not shown) [Example 278, N-[4-fluoro-3-(trifluoromethyl)phenyl]-3-{5-[7-(2-hydroxyacetyl)-1-oxa-2,7-diazaspiro[4.4]non-2-en-3-yl]-2-methoxy-benzamido}-6-(trifluoromethyl)-1-benzothiophene-2-carboxamide]
582 nM	COc1ccc(C2=NOC3(CCN(C(=O)C(C)(C)O)C3)C2)cc1C(=O)Nc1c(C(=O)Nc2ccc(F)c(C(F)(F)F)c2)sc2cc(C(F)(F)F)ccc12 (stereo not shown) [Example 279, N-[4-fluoro-3-(trifluoromethyl)phenyl]-3-{5-[7-(2-hydroxy-2-methylpropanoyl)-1-oxa-2,7-diazaspiro[4.4]non-2-en-3-yl]-2-methoxy-benzamido}-6-(trifluoromethyl)-1-benzothiophene-2-carboxamide]
44.1 nM	COc1ccc(C2=NC(C(=O)N3CC(C)(O)C3)CO2)cc1C(=O)Nc1c(C(=O)Nc2ccc(F)c(C(F)(F)F)c2)sc2cc(C(F)(F)F)ccc12 (stereo not shown) [Example 280, N-[4-fluoro-3-(trifluoromethyl)phenyl]-3-{5-[4-(3-hydroxy-3-methylazetidine-1-carbonyl)-4,5-dihydro-1,3-oxazol-2-yl]-2-methoxy-benzamido}-6-(trifluoromethyl)-1-benzothiophene-2-carboxamide]
95.1 nM	COc1ccc(C2=NC(C(=O)N3CC(C(C)(C)O)C3)CO2)cc1C(=O)Nc1c(C(=O)Nc2ccc(F)c(C(F)(F)F)c2)sc2cc(C(F)(F)F)ccc12 (stereo not shown) [Example 281, N-[4-fluoro-3-(trifluoromethyl)phenyl]-3-(5-{4-[3-(2-hydroxypropan-2-yl)azetidine-1-carbonyl]-4,5-dihydro-1,3-oxazol-2-yl}-2-methoxy-benzamido)-6-(trifluoromethyl)-1-benzothiophene-2-carboxamide]
9.6 nM	COc1ccc(C2=NC(C(=O)N3CC(CO)C3)CO2)cc1C(=O)Nc1c(C(=O)Nc2ccc(F)c(C(F)(F)F)c2)sc2cc(C(F)(F)F)ccc12 (stereo not shown) [Example 282, N-[4-fluoro-3-(trifluoromethyl)phenyl]-3-(5-{4-[3-(hydroxymethyl)azetidine-1-carbonyl]-4,5-dihydro-1,3-oxazol-2-yl}-2-methoxy-benzamido)-6-(trifluoromethyl)-1-benzothiophene-2-carboxamide]
1120 nM	COc1ccc(C2=NOC3(C2)CN(C(=O)C(C)(C)CO)C3)cc1C(=O)Nc1c(C(=O)Nc2ccc(F)c(C(F)(F)F)c2)sc2cc(C(F)(F)F)ccc12 [Example 283, N-(4-fluoro-3-(trifluoromethyl)phenyl)-3-(5-(2-(3-hydroxy-2,2-dimethyl-propanoyl)-5-oxa-2,6-diazaspiro[3.4]oct-6-en-7-yl)-2-methoxy-benzamido)-6-(trifluoromethyl) benzo[b] thiophene-2-carboxamide]
1300 nM	COc1ccc(C2=NOC3(C2)CN(C(=O)C(C)(C)O)C3)cc1C(=O)Nc1c(C(=O)Nc2ccc(F)c(C(F)(F)F)c2)sc2cc(C(F)(F)F)ccc12 [Example 284, N-(4-fluoro-3-(trifluoromethyl)phenyl)-3-(5-(2-(2-hydroxy-2-methylpropanoyl)-5-oxa-2,6-diazaspiro[3.4]oct-6-en-7-yl)-2-methoxy-benzamido)-6-(trifluoromethyl) benzo[b] thiophene-2-carboxamide]
1260 nM	COc1ccc(-c2cc(CO)on2)cc1C(=O)Nc1c(C(=O)Nc2ccc(F)c(C(F)(F)F)c2)sc2cc(C(F)(F)F)ccc12 [Example 287, N-(4-fluoro-3-(trifluoromethyl)phenyl)-3-(5-(5-(hydroxymethyl)isoxazol-3-yl)-2-methoxy-benzamido)-6-(trifluoromethyl) benzo[b] thiophene-2-carboxamide]
1410 nM	COc1ccc(N2CCCC2=O)cc1C(=O)Nc1c(C(=O)Nc2ccc(F)c(C(F)(F)F)c2)sc2cc(C(F)(F)F)ccc12 [Example 290, N-[4-fluoro-3-(trifluoromethyl)phenyl]-3-[2-methoxy-5-(2-oxopyrrolidin-1-yl)benzamido]-6-(trifluoromethyl)-1-benzothiophene-2-carboxamide]

system: not given; experiment: not given; settings: intravenous (IV) formulation; cited from earlier work

Molecule	first-phase pharmacokinetic half-life
Serelaxin: "an intravenous (IV) formulation of the recombinant human relaxin peptide with a relatively short first-phase pharmacokinetic half-life of 0.09 hours"	5.4 min
